In one assay the test system is BaF3. The assay can be described thus: cells. Conditions: Mus musculus.
Assay [1] concerns the target T1, Receptor-type tyrosine-protein kinase FLT3 (Homo sapiens, UniProt P36888, ITD). It counts as cell-based, BaF3.
Description: Inhibition of FLT3 ITD mutant (unknown origin) expressed in mouse BaF3 cells
Assay [2] concerns the target Receptor-type tyrosine-protein kinase FLT3 (Homo sapiens, UniProt P36888, F691L/ITD). The format is cell-based, BaF3.
Description: Inhibition of FLT3 ITD/F691L double mutant (unknown origin) expressed in mouse BaF3 cells
Assay [3] concerns the target Receptor-type tyrosine-protein kinase FLT3 (Homo sapiens, UniProt P36888, D835Y/ITD). It counts as cell-based, BaF3.
Description: Inhibition of FLT3 ITD/D835Y double mutant (unknown origin) expressed in mouse BaF3 cells
A short description of assay [4]: (§1) Inhibition of Wnt/beta-Catenin signaling (unknown origin) expressed in STF3a cells incubated for 24 hrs by STF luciferase reporter gene assay. The format is cell-based. The settings on record: Homo sapiens. (In general: Reporter assays use an easily measured gene product as a stand-in for the process of interest.)
In another assay the test system is STF3A. Described as §1. It counts as cell-based. Conditions: Homo sapiens.
Assay [5] deals with T1, Receptor-type tyrosine-protein kinase FLT3. The assay can be described thus: Inhibition of human partial length FLT3 ITD mutant expressed in bacterial expression system by Kinomescan method.

Description for BaF3: Cytotoxicity against mouse BaF3 cells assessed as reduction in cell viability

Broadly, the IC50 is the point on the concentration scale where inhibition reaches its midpoint. Regarding `CC(C)(C)c1cc(NC(=O)Nc2ccc(Oc3ccnc4[nH]ccc34)c(F)c2)no1`, the IC50 in the assay on BaF3 is greater than 10000 nM; in assay [1] it was 141 nM; in assay [2], 1020 nM; in assay [3] it was 741 nM.
Consider `COc1cc2c(Oc3ccc(NC(=O)Nc4cc(C(C)(C)C)on4)cc3F)ccnc2cc1OCCCN1CCOCC1`, for which the half-maximal inhibitory concentration (IC50) with BaF3 worked out at 1100 nM; in assay [1], 3.22 nM; in assay [2], 9.93 nM; in assay [3], 5.09 nM.
On the same counts, the results for `CC(C)(C)c1cc(NC(=O)Nc2ccc(Oc3ccnc4nc[nH]c34)c(F)c2)no1` are 2080 nM, 0.015 nM, 18.6 nM and 12.4 nM.
Regarding `COc1cc2nccc(Oc3ccc(NC(=O)Nc4cc(C(C)(C)C)on4)cc3F)c2cc1OC`, the 50% inhibitory concentration (IC50) is 1210 nM with BaF3; 0.072 nM in assay [1]; 5.86 nM in assay [2]; 3.48 nM in assay [3]; less than 500 nM in assay [4]. The inhibition result in the assay with STF3A is “Dose-dependent effect”.
As for `CCCOc1cc2nccc(Oc3ccc(NC(=O)Nc4cc(C(C)(C)C)on4)cc3F)c2cc1OC`, the IC50 is 4940 nM in the assay with BaF3, 19.2 nM in assay [1], 54.3 nM in assay [2] and 14.9 nM in assay [3].
As to `COCCOc1cc2nccc(Oc3ccc(NC(=O)Nc4cc(C(C)(C)C)on4)cc3F)c2cc1OC`, the concentration for half-maximal inhibition (IC50) in the assay on BaF3 was found to be 1130 nM; in assay [1] it was 4.73 nM; in assay [2], 11.9 nM; in assay [3], 5.35 nM.
Taken in the same sequence, the figures for `COc1cc2c(Oc3ccc(NC(=O)Nc4cc(C(C)(C)C)on4)cc3F)ccnc2cc1OCC1CCCC1` were 5560 nM, 66.5 nM, 189 nM and 104 nM.
Taken in the same sequence, the figures for `COCCOc1cc2nccc(Oc3ccc(NC(=O)Nc4cc(C(C)(C)C)on4)cc3F)c2cc1OCCOC` were 2000 nM, 5.17 nM, 16 nM and 11 nM.
`CC(C)(C)c1cc(NC(=O)Nc2ccc(Oc3ncnc4[nH]ncc34)c(F)c2)no1`: the 50% inhibitory concentration (IC50) with BaF3 was 3160 nM; in assay [1] it was 0.038 nM; in assay [2], 108 nM; in assay [5], 1.3 nM; in assay [3] it was 130 nM.
For `COCCOc1cc2c(Oc3ccc(NC(=O)Nc4cc(C(C)(C)C)on4)cc3F)ccnc2cc1OC`, the half-maximal inhibitory concentration (IC50) with BaF3 was 3000 nM; in assay [1], 4.91 nM; in assay [2], 20.8 nM; in assay [3] it was 10.1 nM.
Regarding `COc1cc2nccc(Oc3ccc(NC(=O)Nc4cc(C(C)(C)C)on4)cc3F)c2cc1OCCCN1CCOCC1`, the concentration for half-maximal inhibition (IC50) in the assay with BaF3 amounted to 1840 nM; in assay [1] it was 5.77 nM; in assay [2], 16.8 nM; in assay [3] it was 6.28 nM.
Consider `CCOc1cc2c(Oc3ccc(NC(=O)Nc4cc(C(C)(C)C)on4)cc3F)ccnc2cc1OC`, for which the concentration for half-maximal inhibition (IC50) was found to be 2880 nM in the assay with BaF3, 7.25 nM in assay [1], 29.9 nM in assay [2] and 10.9 nM in assay [3].
On the same counts, the results for `CCOc1cc2nccc(Oc3ccc(NC(=O)Nc4cc(C(C)(C)C)on4)cc3F)c2cc1OC` are 1650 nM, 5.2 nM, 8.31 nM and 5.96 nM.
In the case of `COc1cc2ncnc(Oc3ccc(NC(=O)Nc4cc(C(C)(C)C)on4)cc3F)c2cc1OC`, the IC50 with BaF3 was greater than 1990 nM; in assay [1], 1.51 nM; in assay [2], 13.8 nM; in assay [3], 7.93 nM.
On the same counts, the results for `COc1cc2c(Oc3ccc(NC(=O)Nc4cc(C(C)(C)C)on4)cc3F)ccnc2cc1OCC1CO1` (stereo not given) are 9200 nM, 2650 nM, 5270 nM and 3540 nM.
Taken in the same sequence, the figures for `CC(C)(C)c1cc(NC(=O)Nc2ccc(Oc3ccnc4cc(OCC5CCCC5)c(OCC5CCCC5)cc34)c(F)c2)no1` were 6500 nM, 37.2 nM, 38.9 nM and 27.9 nM.
On the same counts, the results for `COc1cc2c(Oc3ccc(NC(=O)Nc4cc(C(C)(C)C)on4)cc3F)ncnc2cn1` are 3040 nM, 1.2 nM, 1020 nM and 64.2 nM.
`COc1cc2c(Oc3ccc(NC(=O)Nc4cc(C(C)(C)C)on4)cc3F)ccnc2cc1OCC(C)C`: the IC50 with BaF3 turned out to be 4820 nM; in assay [1], 36.5 nM; in assay [2] it was 127 nM; in assay [3], 62.4 nM.
On the same counts, the results for `CCOc1cc2nccc(Oc3ccc(NC(=O)Nc4cc(C(C)(C)C)on4)cc3F)c2cc1OCC` are 3140 nM, 3.08 nM, 32.6 nM and 15.5 nM.
Taken in the same sequence, the figures for `CC(C)(C)c1cc(NC(=O)Nc2ccc(Oc3nccc4ccccc34)c(F)c2)no1` were greater than 10000 nM, 1260 nM, greater than 10000 nM and greater than 10000 nM.
With `CCCOc1cc2c(Oc3ccc(NC(=O)Nc4cc(C(C)(C)C)on4)cc3F)ccnc2cc1OC`, the concentration for half-maximal inhibition (IC50) came out at 7770 nM with BaF3, 76.1 nM in assay [1], 296 nM in assay [2] and 160 nM in assay [3].
On the same counts, the results for `CC(C)(C)c1cc(NC(=O)Nc2ccc(Oc3ccnc4[nH]ncc34)c(F)c2)no1` are 2620 nM, 0.292 nM, 35 nM and 34.3 nM.
Taken in the same sequence, the figures for `COc1cc2nccc(Oc3ccc(NC(=O)Nc4cc(C(C)(C)C)on4)cc3F)c2cc1OC(C)C` were 2030 nM, 6.88 nM, 23.1 nM and 10.6 nM.

The values are drawn from ChEMBL document CHEMBL4699484, “Discovery of small molecule FLT3 inhibitors that are able to overcome drug-resistant mutations” (Bioorg Med Chem Lett, 2020).
